# Test results published in publication PMC12040169 (PLOS Biology, 2025).
# Test: in vitro
# Settings: human, hela cells, % viability
row,SMILES,"viability at 28.5 h, 10 µM"
1,CC(C)(C)SCCNC(=S)NCCO [CBK020686],98.7%
2,CSc1cc(C)c(O)c(CO)c1 [CBK020687],85.7%
3,CCc1c(C)nc2nnc(NC(=O)C(F)(F)F)n2c1O [CBK020762],102%
4,COc1nc(OC)nc(OC2=CC(=O)CC(C)(C)C2)n1 [CBK020772],95.5%
5,CC1=C(CCN2CCCC(CO)C2)C(C)(C)CCC1 (stereo not shown) [CBK020827],88.2%
6,CC(C)(C)NCC(O)COc1c(F)cc(Br)cc1F (stereo not shown) [CBK020879C],107%
7,CCOC(=O)c1sc(C)c(C(N)=O)c1/N=C1\CCCN1 [CBK020893],105%
8,CCCC(SCC)C(N)=O (stereo not shown) [CBK020895],99.1%
9,COC(=O)c1cc(Cl)c(NC(=S)NC(=O)C(C)(C)C)cc1OC [CBK020937],94.1%
10,CCOC(=O)c1sc2ccc(NC(C)=O)cc2c1C [CBK021052],76.8%
11,COc1ccc(C2NCCS2)cc1Br (stereo not shown) [CBK021053],104%
12,COc1ccc(CCOC(=O)Nc2cn(C)nc2C(F)(F)F)cc1OC [CBK021070],105%
13,IC1COC(c2ccccc2)OC1 (stereo not shown) [CBK021109],110%
14,CN1CCC(N(C2CC2)S(=O)(=O)c2ccc(NC(=O)C(C)(C)C)cc2)CC1 [CBK021115],99%
15,Cc1oc(-c2cccs2)cc1C(=O)O [CBK021183],93.5%
16,Cc1ccc(COCSc2nc3ccccc3n2CC(O)CO)cc1C (stereo not shown) [CBK021195],85.1%
17,CC(=O)c1cc2c(N)c(/C(N)=N/C#N)sc2nc1C [CBK021202],70.7%
18,Brc1csc(CNc2ccc3cn[nH]c3c2)c1 [CBK021216],75.1%
19,Cc1ccc(CCn2cc(C)nc2C)cn1 [CBK021231],106%
20,COc1ccc2cc3c(nc2c1)Sc1nncn1N=C3 [CBK021248],100%
21,CNC(=S)N/N=C/c1c(C)cccc1Cl [CBK021253],84.6%
22,C/C(=N\c1ccccc1C(F)(F)F)c1ccncc1 [CBK021262],86.6%
23,O=C(Nc1ccccn1)NC1CCS(=O)(=O)C1 (stereo not shown) [CBK021330],99.9%
24,CCOC(=O)c1c(C#N)c(SCc2ccc(Cl)cc2)nc2c1CN(CC)CC2 [CBK021337],90.9%
25,Nc1nnc2c(C(F)(F)F)nc3ccccc3n12 [CBK021345],82.1%

row,SMILES,"viability at 28.5 h, 10 µM"
1,COC(=O)c1ccc(Cl)cc1N(Cc1c(F)cccc1Cl)S(C)(=O)=O [CBK021351],85.3%
2,Cc1ccc(CCn2nc(C)cc2C)cn1 [CBK021375],104%
3,CCOC(=O)C1=NN(C)c2cnn(Cc3ccc(Cl)cc3)c(=O)c2C1C(=O)CC(C)C (stereo not shown) [CBK021389],91.9%
4,COc1ccccc1N1C(=O)[C@H]2N=C(C(=O)c3cnccn3)N[C@H]2C1=O [CBK021406],90.3%
5,COC(=O)c1cn(C(=O)c2snnc2C)nc1C(C)(C)C [CBK021420],89.2%
6,CCOC(=O)C(NC(=O)N(C1=NCC(C)S1)C1CCCCC1)(OC)C(F)(F)F (stereo not shown) [CBK021431],96.8%
7,CCCCSc1cc(C)nc2ncnn12 [CBK021443],105%
8,COc1ccc(Cc2nc(C(C)(C)C)cs2)cc1 [CBK021497B],85%
9,CCOC(=O)C1=C(C)Nc2nc(C)nc(Cl)c2O1 [CBK021504],103%
10,CC(C)(C)c1csc(Nc2ncc(C(F)(F)F)cc2Cl)n1 [CBK021513],77.5%
11,N=C(N)NC(=N)Nc1ccc2c(c1)OCCO2 [CBK021572C],84.3%
12,c1ccc(NCc2ncnc3c2ncn3C2CCCCO2)cc1 (stereo not shown) [CBK021593],100%
13,CC(C)(C)NC(=O)NCC(c1ccc[nH]1)C(F)(F)F (stereo not shown) [CBK021595],92.3%
14,Nc1nc(Cl)cc(Sc2ccc3ccccc3c2)n1 [CBK021630],97.4%
15,CCc1c(C)sc(NC(=O)c2ccc(Br)o2)c1C#N [CBK021662],83.6%
16,CNCCC(Sc1ccccn1)c1ccccc1 (stereo not shown) [CBK021724C],93.5%
17,CCOC(=O)Cc1nnc(-c2ccc(Cl)cc2)[nH]1 [CBK021882],89.1%
18,O=C(CCS(=O)(=O)c1ccc(Br)cc1)OCC(=O)c1ccccc1 [CBK021886],104%
19,FC(F)(F)c1ccncc1-n1cccc1 [CBK021909],85.9%
20,O=C(O)COCCn1cc(-c2ccc(Cl)cc2)cn1 [CBK021914],84.5%
21,CC(C)(C)c1csc(N2CCSCC2)n1 [CBK021950],119%
22,Oc1ccccc1-c1ccnc(SC(F)F)n1 [CBK021971],81.8%
23,C/C(=N\N=C1\N=C(O)C(CC(=O)O)S1)c1ccco1 (stereo not shown) [CBK021973],96.8%
24,Cc1ccc2nc(NC(=O)C(C)(C)C)nc(O)c2c1 [CBK021975],97.7%
25,COc1cc(NC(=S)P(=O)(c2ccccc2)c2ccccc2)c(OC)cc1Cl [CBK021976],95.6%

row,SMILES,"viability at 28.5 h, 10 µM"
1,Cc1nc2ccccc2n1C(F)(F)C(F)F [CBK022023],116%
2,Oc1cc(Cl)c(-c2ccccc2)nn1 [CBK022028],88.4%
3,C/N=C1/c2cn3ccccc3c2CCN1C [CBK022058],116%
4,O=C(c1ccno1)n1nccc1-c1cc(-c2ccccc2)no1 [CBK022074],101%
5,Cc1nnc(SCC(=O)Nc2nnc(C(C)C)s2)[nH]c1=O [CBK022107],87%
6,COc1cccc(-n2cnc3cccc(N)c32)c1 [CBK022114],94.9%
7,COc1ccc2cc([C@@H](O)C[C@@H](C)O)c(Cl)nc2c1 [CBK022146],104%
8,CC1(C)C2C(=O)C(c3ccccn3)=C(N)N2C(C)(C)C1(C)C (stereo not shown) [CBK022153],110%
9,Cn1ccc(C2=C(N)C(C#N)C3=C(CC(C)(C)CC3=O)O2)c1 (stereo not shown) [CBK022168],109%
10,COc1ccc2c(-c3cc(N)sn3)c(C)oc2c1 [CBK022260],83.8%
11,Cc1cc(C)nc(N2CCN(C(=O)CCC(=O)NCc3cccc(C(F)(F)F)c3)CC2)n1 [CBK022261],107%
12,O=C(NC1CCCCC1)c1s/c(=N/O)nnc1Nc1ccccc1 [CBK022275],93.8%
13,CCN(CC)C(=O)c1c(F)ccc(F)c1C(=O)O [CBK022303],85%
14,O=C1C2C=NNC2C(=O)N1c1ccccc1 (stereo not shown) [CBK022326],103%
15,COCc1cc(O)nc(Cc2c(Cl)cccc2Cl)n1 [CBK022389],96.7%
16,O=C(c1ccc(Br)o1)n1cc(C(F)(F)F)ccc1=O [CBK022391],108%
17,Nc1nc2sc3c(c2cc1C(=O)N1CCOCC1)CCCC3 [CBK022399],96.1%
18,COc1ccc(S(=O)(=O)N(C)c2ccc(N3CCNCC3)c3ccccc23)cc1 [CBK022404C],94.9%
19,CC1(C)CC(=O)C2=C(C1)CC1(C)CC(C)(C)CC2(Nc2ccccn2)C1 (stereo not shown) [CBK022425],121%
20,Cc1ccccc1N1C(=O)c2ccc(Br)cc2C1=O [CBK022430],90.9%
21,Cc1cc(NS(=O)(=O)c2cccc(Cl)c2C)on1 [CBK022499],92%
22,c1cc(OCc2cccs2)cc(N2CCNCC2)c1 [CBK022557F],89.3%
23,c1cc(COc2ccc(N3CCNCC3)nn2)co1 [CBK022562],95.7%
24,CS(=O)(=O)N1CC2(CCN(C(=O)[C@@H](N)COCc3ccccc3)CC2)c2ccccc21 [CBK022597C],104%
25,O=C1OCc2ccc3c(c21)COCO3 [CBK022696],107%

row,SMILES,"viability at 28.5 h, 10 µM"
1,CC(=O)NC(Cc1c[nH]c2ccccc12)/C(C)=N/O (stereo not shown) [CBK022711],120%
2,Cc1ccc(S(=O)(=O)Nc2nnc(C3CCCCC3)s2)cc1 [CBK022722],101%
3,CC1=CC(C)C(=S)NC(C)=C1 (stereo not shown) [CBK022735],91%
4,CC1=Nc2ccc(Cl)cc2C(C)(C)O1 [CBK022763C],107%
5,Nc1ccccc1NC(=O)NC(=O)c1ccccc1 [CBK022767],94%
6,Cc1cc(C(=O)O)c(C)cc1N [CBK022781],95.5%
7,C/N=c1\cccccc1NC [CBK022788],110%
8,CCN(CC)CCC(C(=O)c1ccccc1)S(C)(=O)=O (stereo not shown) [CBK022802],88.8%
9,NC(=S)c1ccc2c(c1)OCO2 [CBK022803],86.3%
10,COc1ccc2c(c1)CCC1(C)C2=C(C(=O)O)CC1O (stereo not shown) [CBK022814],103%
11,COc1ccc(S(=O)(=O)NC(=O)NCC2CC3C=CC2C3)cc1 (stereo not shown) [CBK022821],88.7%
12,OCC1CCC(O)C(CO)N1 (stereo not shown) [CBK022827C],86.5%
13,CCCCNC(=O)OC1CCN(CCc2ccccc2)CC1 [CBK022839C],89.2%
14,CCCCSc1nnc(NS(=O)(=O)c2ccc(NC(C)=O)cc2)s1 [CBK022853],98.5%
15,CN(C)CCCOC(=O)CN1c2ccccc2CCc2ccccc21 [CBK022863C],97%
16,O=C(O)c1ccc(S(=O)(=O)c2ccc(C(=O)O)c(C(=O)O)c2)cc1C(=O)O [CBK022872],93.1%
17,CN1c2ccccc2C(c2ccccc2)=NS1(=O)=O [CBK022873],92.1%
18,Cc1noc(N)c1C1OC(=O)c2ccccc21 (stereo not shown) [CBK022932],104%
19,COc1ccc(-c2cc[nH]n2)c(OC)c1OC [CBK022957C],82%
20,CCCCNC(=O)NS(N)(=O)=O [CBK022990],109%
21,CC1=NS(=O)(=O)NC2=C1CCCC2 [CBK022998],96.6%
22,CCN(CC)CCN1C(=O)CCC2(c3ccccc3)CCC(=O)C=C12 (stereo not shown) [CBK023010C],105%

# Same assay, conditions: human, hela cells, % viability, bulk resorufin, single well
row,SMILES,"viability at 28.5 h, 10 µM"
1,CCOC(=O)C1(c2ccccc2)CCN(CC(=O)Nc2ccc(C(=O)OC)cc2)CC1 [CBK020942],92.9%
2,O=C(O)C(O)(c1ccccc1)c1cccs1 (stereo not shown) [CBK022808],108%
3,Cc1cc(Cl)c(OC(=O)NC2CCCCC2)cc1C [CBK022948],90.1%
